Results: patent US12343326B2, “Psychoactive medicines and their use for treating psychiatric and neurological conditions and disorders” (Transcend Therapeutics, Inc., priority 2021, dated 2025)

Legend:
Assay in all cases: β-arrestin based GPCR screen (PathHunter / GPCRmax), agonist mode
Assay type in all cases: cell-based
Parameters in all cases: host or cells: PathHunter cell lines
168 GPCRs [1] = biological target: 168 GPCRs (Homo sapiens, UniProt P18089); settings: ADRA2B, Agonist
Description: (§1) For agonist determination, cells were incubated with sample to induce response. […] Vehicle concentration was 1%.

168 GPCRs [2] = biological target: 168 GPCRs (Homo sapiens, UniProt Q9NSD7)
Description: as §1

168 GPCRs [3] = biological target: 168 GPCRs (Homo sapiens, UniProt Q9GZQ6)
Description: as §1

168 GPCRs [4] = biological target: 168 GPCRs (Homo sapiens, UniProt P48546); settings: GIPR
Description: as §1

168 GPCRs [5] = biological target: 168 GPCRs (Homo sapiens, UniProt P28222); settings: HTR1B
Description: as §1

168 GPCRs [6] = biological target: 168 GPCRs (Homo sapiens, UniProt Q9UBY5)
Description: as §1

168 GPCRs [7] = biological target: 168 GPCRs (Homo sapiens, UniProt Q16581); settings: C3AR1, Agonist
Description: as §1

168 GPCRs [8] = biological target: 168 GPCRs (Homo sapiens, UniProt Q969F8); settings: KISS1R
Description: as §1

168 GPCRs [9] = biological target: 168 GPCRs (Homo sapiens, UniProt P49682)
Description: as §1

168 GPCRs [10] = biological target: 168 GPCRs (Homo sapiens, UniProt O43603)
Description: as §1

168 GPCRs [11] = biological target: 168 GPCRs (Homo sapiens, UniProt Q8TDS4); settings: GPR109A
Description: as §1

168 GPCRs [12] = biological target: 168 GPCRs (Homo sapiens, UniProt P25929); settings: NPY1R
Description: as §1

168 GPCRs [13] = biological target: 168 GPCRs (Homo sapiens, UniProt P21554)
Description: as §1

168 GPCRs [14] = biological target: 168 GPCRs (Homo sapiens, UniProt Q8TCW9)
Description: as §1

168 GPCRs [15] = biological target: 168 GPCRs (Homo sapiens, UniProt P49190)
Description: as §1

168 GPCRs [16] = biological target: 168 GPCRs (Homo sapiens, UniProt P46091)
Description: as §1

168 GPCRs [17] = biological target: 168 GPCRs (Homo sapiens, UniProt P47901); settings: AVPR1B, Agonist
Description: as §1

168 GPCRs [18] = biological target: T1, 168 GPCRs (Homo sapiens, UniProt P08173); settings: CHRM4, Agonist
T1 sequence (P08173 1-479): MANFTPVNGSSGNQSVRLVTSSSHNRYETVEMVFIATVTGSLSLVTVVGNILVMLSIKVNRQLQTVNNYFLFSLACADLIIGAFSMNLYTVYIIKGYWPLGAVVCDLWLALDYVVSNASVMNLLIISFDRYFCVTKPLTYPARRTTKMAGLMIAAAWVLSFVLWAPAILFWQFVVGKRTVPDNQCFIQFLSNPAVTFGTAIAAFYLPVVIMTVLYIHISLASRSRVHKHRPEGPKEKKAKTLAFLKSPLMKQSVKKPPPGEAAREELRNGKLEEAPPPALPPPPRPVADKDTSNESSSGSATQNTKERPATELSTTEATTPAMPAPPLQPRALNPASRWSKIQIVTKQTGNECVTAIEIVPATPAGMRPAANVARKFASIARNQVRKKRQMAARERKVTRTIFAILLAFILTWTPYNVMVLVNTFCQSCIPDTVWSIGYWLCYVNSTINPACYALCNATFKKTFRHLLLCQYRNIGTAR
Description: as §1

168 GPCRs [19] = biological target: 168 GPCRs (Homo sapiens, UniProt P21462)
Description: as §1

168 GPCRs [20] = biological target: 168 GPCRs (Homo sapiens, UniProt P35462)
Description: as §1

Sequence of 168 GPCRs (Homo sapiens, UniProt Q8TDS4) (Q8TDS4 whole entry): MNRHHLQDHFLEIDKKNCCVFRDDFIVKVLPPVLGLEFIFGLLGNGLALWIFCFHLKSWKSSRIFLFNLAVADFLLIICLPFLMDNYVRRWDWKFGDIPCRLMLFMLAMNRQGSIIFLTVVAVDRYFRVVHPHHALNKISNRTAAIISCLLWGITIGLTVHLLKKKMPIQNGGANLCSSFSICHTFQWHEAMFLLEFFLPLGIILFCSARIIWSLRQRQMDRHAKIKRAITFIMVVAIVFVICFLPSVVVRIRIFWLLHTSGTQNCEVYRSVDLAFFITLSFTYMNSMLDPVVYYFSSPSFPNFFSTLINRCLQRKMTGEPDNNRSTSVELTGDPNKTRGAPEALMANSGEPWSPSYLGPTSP
Sequence of 168 GPCRs (Homo sapiens, UniProt P35462) (P35462 whole entry): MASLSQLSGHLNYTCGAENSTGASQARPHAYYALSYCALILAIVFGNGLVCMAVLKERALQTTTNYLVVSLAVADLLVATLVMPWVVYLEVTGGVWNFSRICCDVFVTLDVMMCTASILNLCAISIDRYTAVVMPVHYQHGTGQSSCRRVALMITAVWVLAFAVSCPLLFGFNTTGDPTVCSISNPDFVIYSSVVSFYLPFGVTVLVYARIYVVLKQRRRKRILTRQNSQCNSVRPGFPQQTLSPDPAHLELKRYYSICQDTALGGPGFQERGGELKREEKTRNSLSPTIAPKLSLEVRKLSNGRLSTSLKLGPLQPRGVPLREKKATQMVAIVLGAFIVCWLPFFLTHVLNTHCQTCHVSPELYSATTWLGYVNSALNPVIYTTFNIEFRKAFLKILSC
Sequence of 168 GPCRs (Homo sapiens, UniProt P49682) (P49682 whole entry): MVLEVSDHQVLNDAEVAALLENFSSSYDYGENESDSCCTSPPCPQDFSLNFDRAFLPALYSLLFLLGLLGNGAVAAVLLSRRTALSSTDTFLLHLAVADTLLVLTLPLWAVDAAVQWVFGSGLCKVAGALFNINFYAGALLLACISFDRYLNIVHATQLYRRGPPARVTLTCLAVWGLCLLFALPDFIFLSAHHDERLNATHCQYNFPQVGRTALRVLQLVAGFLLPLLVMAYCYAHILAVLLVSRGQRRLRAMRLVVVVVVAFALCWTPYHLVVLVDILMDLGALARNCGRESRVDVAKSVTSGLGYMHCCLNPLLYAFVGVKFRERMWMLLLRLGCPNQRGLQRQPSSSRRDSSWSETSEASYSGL
Sequence of 168 GPCRs (Homo sapiens, UniProt P28222) (P28222 whole entry): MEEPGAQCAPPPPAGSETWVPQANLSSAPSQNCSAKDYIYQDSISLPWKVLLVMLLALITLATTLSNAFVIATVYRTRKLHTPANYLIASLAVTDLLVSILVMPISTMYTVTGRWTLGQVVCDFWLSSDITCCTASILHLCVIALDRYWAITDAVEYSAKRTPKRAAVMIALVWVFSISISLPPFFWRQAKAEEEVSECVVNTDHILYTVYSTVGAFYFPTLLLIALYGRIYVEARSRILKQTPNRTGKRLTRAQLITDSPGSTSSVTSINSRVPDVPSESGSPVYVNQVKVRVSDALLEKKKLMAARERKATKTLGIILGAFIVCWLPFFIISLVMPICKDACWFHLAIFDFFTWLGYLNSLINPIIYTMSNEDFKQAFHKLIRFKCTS
Sequence of 168 GPCRs (Homo sapiens, UniProt O43603) (O43603 whole entry): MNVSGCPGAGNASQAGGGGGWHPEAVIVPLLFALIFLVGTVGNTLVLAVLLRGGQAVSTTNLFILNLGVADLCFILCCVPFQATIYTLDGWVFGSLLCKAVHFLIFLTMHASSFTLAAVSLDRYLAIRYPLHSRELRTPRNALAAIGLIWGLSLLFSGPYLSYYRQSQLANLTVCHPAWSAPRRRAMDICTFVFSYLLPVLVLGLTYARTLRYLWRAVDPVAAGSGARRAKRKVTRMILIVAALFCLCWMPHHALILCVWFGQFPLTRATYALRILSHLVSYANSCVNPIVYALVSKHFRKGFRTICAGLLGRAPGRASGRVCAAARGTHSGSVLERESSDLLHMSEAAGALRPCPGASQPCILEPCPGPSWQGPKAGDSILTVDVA
Sequence of 168 GPCRs (Homo sapiens, UniProt P21554) (P21554 whole entry): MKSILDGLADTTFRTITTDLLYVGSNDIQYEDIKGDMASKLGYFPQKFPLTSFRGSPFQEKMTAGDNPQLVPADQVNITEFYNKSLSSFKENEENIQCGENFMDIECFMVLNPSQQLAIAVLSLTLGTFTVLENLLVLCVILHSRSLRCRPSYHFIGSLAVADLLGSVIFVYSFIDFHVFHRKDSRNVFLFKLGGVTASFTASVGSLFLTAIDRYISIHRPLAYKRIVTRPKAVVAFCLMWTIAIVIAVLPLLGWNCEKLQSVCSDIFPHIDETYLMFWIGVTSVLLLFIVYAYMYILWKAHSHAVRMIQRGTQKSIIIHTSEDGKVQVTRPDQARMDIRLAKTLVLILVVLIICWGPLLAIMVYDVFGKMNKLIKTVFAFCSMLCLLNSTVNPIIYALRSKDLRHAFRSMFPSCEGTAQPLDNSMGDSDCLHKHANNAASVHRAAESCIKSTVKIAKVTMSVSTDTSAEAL
Sequence of 168 GPCRs (Homo sapiens, UniProt Q9UBY5) (Q9UBY5 whole entry): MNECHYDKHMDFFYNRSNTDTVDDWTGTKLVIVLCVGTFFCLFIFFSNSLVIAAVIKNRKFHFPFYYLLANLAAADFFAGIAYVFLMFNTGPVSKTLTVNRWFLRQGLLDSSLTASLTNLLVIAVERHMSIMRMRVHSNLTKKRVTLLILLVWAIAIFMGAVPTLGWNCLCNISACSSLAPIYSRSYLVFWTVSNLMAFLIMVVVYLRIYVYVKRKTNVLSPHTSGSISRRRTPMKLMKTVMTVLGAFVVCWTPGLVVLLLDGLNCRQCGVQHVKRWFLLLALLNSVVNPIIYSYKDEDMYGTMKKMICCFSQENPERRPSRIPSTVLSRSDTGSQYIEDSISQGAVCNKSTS
Sequence of 168 GPCRs (Homo sapiens, UniProt P47901) (P47901 whole entry): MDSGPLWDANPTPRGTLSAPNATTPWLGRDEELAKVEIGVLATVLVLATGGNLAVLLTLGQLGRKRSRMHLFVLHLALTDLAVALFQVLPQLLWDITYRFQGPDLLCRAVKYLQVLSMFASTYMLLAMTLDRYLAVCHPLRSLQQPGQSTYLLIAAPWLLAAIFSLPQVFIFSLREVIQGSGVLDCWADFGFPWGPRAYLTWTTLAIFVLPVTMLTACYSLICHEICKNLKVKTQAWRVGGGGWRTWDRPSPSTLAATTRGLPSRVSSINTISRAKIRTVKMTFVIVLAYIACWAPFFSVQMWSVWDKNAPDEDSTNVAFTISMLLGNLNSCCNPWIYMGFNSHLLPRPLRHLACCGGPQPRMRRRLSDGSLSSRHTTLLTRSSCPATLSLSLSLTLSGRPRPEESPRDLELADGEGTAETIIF
Sequence of 168 GPCRs (Homo sapiens, UniProt Q8TCW9) (Q8TCW9 whole entry): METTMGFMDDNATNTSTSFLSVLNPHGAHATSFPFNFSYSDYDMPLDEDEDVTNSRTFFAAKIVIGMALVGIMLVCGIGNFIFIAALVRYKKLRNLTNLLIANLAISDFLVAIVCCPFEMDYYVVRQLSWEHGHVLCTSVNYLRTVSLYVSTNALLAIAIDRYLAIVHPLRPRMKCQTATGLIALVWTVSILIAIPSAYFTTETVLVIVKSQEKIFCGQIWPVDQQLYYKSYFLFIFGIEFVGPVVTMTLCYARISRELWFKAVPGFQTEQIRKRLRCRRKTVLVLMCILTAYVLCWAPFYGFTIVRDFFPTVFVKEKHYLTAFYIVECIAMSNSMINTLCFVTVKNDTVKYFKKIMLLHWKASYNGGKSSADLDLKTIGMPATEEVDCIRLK
Sequence of 168 GPCRs (Homo sapiens, UniProt P21462) (P21462 whole entry): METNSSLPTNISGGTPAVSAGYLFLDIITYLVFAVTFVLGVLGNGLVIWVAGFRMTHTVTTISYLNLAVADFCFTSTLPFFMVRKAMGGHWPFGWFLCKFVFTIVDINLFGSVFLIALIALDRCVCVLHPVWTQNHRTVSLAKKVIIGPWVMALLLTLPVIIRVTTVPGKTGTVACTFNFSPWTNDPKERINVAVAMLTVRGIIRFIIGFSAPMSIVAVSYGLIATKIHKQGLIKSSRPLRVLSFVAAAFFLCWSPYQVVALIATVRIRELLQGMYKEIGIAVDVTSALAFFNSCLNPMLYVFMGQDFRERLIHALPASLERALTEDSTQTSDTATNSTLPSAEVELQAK
Sequence of 168 GPCRs (Homo sapiens, UniProt P48546) (P48546 22-466): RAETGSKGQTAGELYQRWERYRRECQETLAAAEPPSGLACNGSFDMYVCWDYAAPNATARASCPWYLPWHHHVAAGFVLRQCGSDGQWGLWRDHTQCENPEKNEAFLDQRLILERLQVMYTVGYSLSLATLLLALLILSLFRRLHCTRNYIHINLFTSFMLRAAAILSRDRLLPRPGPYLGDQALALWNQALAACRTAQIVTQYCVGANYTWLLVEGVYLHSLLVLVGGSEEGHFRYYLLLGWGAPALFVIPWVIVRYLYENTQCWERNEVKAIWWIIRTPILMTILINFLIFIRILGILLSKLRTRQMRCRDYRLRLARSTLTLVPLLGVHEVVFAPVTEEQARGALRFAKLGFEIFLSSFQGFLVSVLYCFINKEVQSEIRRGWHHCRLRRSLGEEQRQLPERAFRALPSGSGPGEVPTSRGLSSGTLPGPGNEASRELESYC
Sequence of 168 GPCRs (Homo sapiens, UniProt Q16581) (Q16581 whole entry): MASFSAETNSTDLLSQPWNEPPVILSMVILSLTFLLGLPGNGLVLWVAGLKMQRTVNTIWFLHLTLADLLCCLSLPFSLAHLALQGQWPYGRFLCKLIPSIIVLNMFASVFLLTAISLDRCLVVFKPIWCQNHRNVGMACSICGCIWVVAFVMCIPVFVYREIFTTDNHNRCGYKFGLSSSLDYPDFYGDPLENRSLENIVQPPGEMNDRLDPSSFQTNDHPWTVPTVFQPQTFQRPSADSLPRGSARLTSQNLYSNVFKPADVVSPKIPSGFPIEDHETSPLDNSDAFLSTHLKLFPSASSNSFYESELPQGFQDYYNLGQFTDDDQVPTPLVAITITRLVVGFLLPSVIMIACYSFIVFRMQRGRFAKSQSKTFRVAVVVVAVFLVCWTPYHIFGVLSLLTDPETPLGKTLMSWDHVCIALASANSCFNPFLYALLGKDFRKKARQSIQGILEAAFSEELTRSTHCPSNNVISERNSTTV

How did the activity at 1 µM (168 GPCRs [1]; 1 uM) turn out when CNC(C)C(=O)c1ccc2c(c1)OCO2 (stereo not shown) [methylone, 3,4-methylenedioxy-N-methylcathinone] was run?
Its activity at 1 µM is -1%.

What about the activity at 10 µM (168 GPCRs [1]; 10 uM) of the same compound?
The activity at 10 µM was 1.3%.

And the activity at 10 µM (168 GPCRs [2]; RXFP3, Agonist mode, 10 uM)?
Its activity at 10 µM is -8.7%.

What about the activity at 1 µM (168 GPCRs [2]; RXFP3, Agonist, 1 uM) of the same compound?
Its activity at 1 µM is -7.6%.

What about the activity at 10 µM (168 GPCRs [3]; NPFFR1, Agonist mode, 10 uM) of the same compound?
The activity at 10 µM was -5.6%.

And the activity at 1 µM (168 GPCRs [3]; NPFFR1, Agonist, 1 uM)?
The activity at 1 µM was -4.6%.

And the activity at 10 µM (168 GPCRs [4]; Agonist mode, 10 uM)?
Its activity at 10 µM is -5.8%.

What about the activity at 1 µM (168 GPCRs [4]; Agonist, 1 uM) of the same compound?
The activity at 1 µM was -2.9%.

What about the activity at 10 µM (168 GPCRs [5]; Agonist mode, 10 uM) of the same compound?
Its activity at 10 µM is 6.7%.

What about the activity at 1 µM (168 GPCRs [5]; Agonist, 1 uM) of the same compound?
Its activity at 1 µM is 3.3%.

What about the activity at 10 µM (168 GPCRs [6]; EDG7, Agonist mode, 10 uM) of the same compound?
The activity at 10 µM was 1.1%.

And the activity at 1 µM (168 GPCRs [6]; EDG7, Agonist, 1 uM)?
The activity at 1 µM was 3%.

And the activity at 1 µM (168 GPCRs [7]; 1 uM)?
The activity at 1 µM was -0.1%.

What about the activity at 10 µM (168 GPCRs [7]; 10 uM) of the same compound?
The activity at 10 µM was 0%.

What about the activity at 10 µM (168 GPCRs [8]; Agonist mode, 10 uM) of the same compound?
The activity at 10 µM was -3.7%.

And the activity at 1 µM (168 GPCRs [8]; Agonist, 1 uM)?
The activity at 1 µM was -5.5%.

What about the activity at 10 µM (168 GPCRs [9]; CXCR3, Agonist mode, 10 uM) of the same compound?
Its activity at 10 µM is 1.6%.

What about the activity at 1 µM (168 GPCRs [9]; CXCR3, Agonist, 1 uM) of the same compound?
The activity at 1 µM was -0.2%.

What about the activity at 10 µM (168 GPCRs [10]; GALR2, Agonist mode, 10 uM) of the same compound?
The activity at 10 µM was 1.9%.

And the activity at 1 µM (168 GPCRs [10]; GALR2, Agonist, 1 uM)?
The activity at 1 µM was 3.4%.

What about the activity at 10 µM (168 GPCRs [11]; Agonist mode, 10 uM) of the same compound?
The activity at 10 µM was -4.3%.

What about the activity at 1 µM (168 GPCRs [11]; Agonist, 1 uM) of the same compound?
Its activity at 1 µM is -8.7%.

What about the activity at 10 µM (168 GPCRs [12]; Agonist mode, 10 uM) of the same compound?
Its activity at 10 µM is -4.9%.

And the activity at 1 µM (168 GPCRs [12]; Agonist, 1 uM)?
The activity at 1 µM was -2.2%.

And the activity at 10 µM (168 GPCRs [13]; CNR1, Agonist mode, 10 uM)?
The activity at 10 µM was -2.7%.

What about the activity at 1 µM (168 GPCRs [13]; CNR1, Agonist, 1 uM) of the same compound?
Its activity at 1 µM is -0.4%.

And the activity at 10 µM (168 GPCRs [14]; PROKR1, Agonist mode, 10 uM)?
The activity at 10 µM was -2.8%.

What about the activity at 1 µM (168 GPCRs [14]; PROKR1, Agonist, 1 uM) of the same compound?
Its activity at 1 µM is -1.3%.

And the activity at 10 µM (168 GPCRs [15]; PTHR2, Agonist mode, 10 uM)?
The activity at 10 µM was -0.5%.

And the activity at 1 µM (168 GPCRs [15]; PTHR2, Agonist, 1 uM)?
The activity at 1 µM was -0.6%.

What about the activity at 10 µM (168 GPCRs [16]; GPR1, Agonist mode, 10 uM) of the same compound?
The activity at 10 µM was -0.7%.

What about the activity at 1 µM (168 GPCRs [16]; GPR1, Agonist, 1 uM) of the same compound?
The activity at 1 µM was -0.5%.

What about the activity at 1 µM (168 GPCRs [17]; 1 uM) of the same compound?
Its activity at 1 µM is -1.2%.

What about the activity at 10 µM (168 GPCRs [17]; 10 uM) of the same compound?
The activity at 10 µM was -1.1%.

And the activity at 1 µM (168 GPCRs [18]; 1 uM)?
The activity at 1 µM was -5.8%.

What about the activity at 10 µM (168 GPCRs [18]; 10 uM) of the same compound?
The activity at 10 µM was -6.2%.

And the activity at 10 µM (168 GPCRs [19]; FPR1, Agonist mode, 10 uM)?
Its activity at 10 µM is 0.5%.

What about the activity at 1 µM (168 GPCRs [19]; FPR1, Agonist, 1 uM) of the same compound?
The activity at 1 µM was 2.2%.

And the activity at 10 µM (168 GPCRs [20]; DRD3, Agonist mode, 10 uM)?
The activity at 10 µM was 2.3%.

And the activity at 1 µM (168 GPCRs [20]; DRD3, Agonist, 1 uM)?
The activity at 1 µM was 2.2%.
